Data set [1] concerns MiaPaCa-2 (pancreatic cancer). The data set is described as follows: Cell proliferation, MiaPaCa-2. Type of data set: cell-based. As to conditions: Homo sapiens, MIA PaCa-2. An excerpt: (§1) Pancreatic cancer cell lines MiaPaCa-2, PANC1 (human), TB33117 (mouse), and KPCWT833 were used to test the effect of Compound Ia on cell proliferation. PANC1 and TB33117 cell lines express high levels of PAK1 and PAK4, while MiaPaCa-2 cell has low levels of PAK1 and PAK4 (Yeo, 2014 and unpublished data). […] Compound Ia was also shown to inhibit colorectal cell line MC-38, brain glioblastoma cancer cell like U-87, melanoma cell line B16F1, liver cell line HepG2, and bile duct cancer cell line EIG-1 at low to sub-micromolar IC50 values.

For data set [2], the system named is TB33117 (pancreatic cancer). The data set is described as follows: Cell proliferation, TB33117. Type of data set: cell-based, mouse.
Text: as §1

Data set [3] has as its system PANC1 (pancreatic cancer). Briefly: Cell proliferation, PANC1. The class given is cell-based, human.
Text: as §1

For a further data set, the system named is U-87 (brain tumour). The data set is described as follows: Cell proliferation, U-87. Type of data set: cell-based. The following applies: Homo sapiens, U-87 MG.
Text: as §1

The test system of a further data set is PD-L1. Briefly: Western blot of PD-L1 expression in DLD-1 cells. Type of data set: cell-based. The following applies: DLD-1 cells, 0, 1, 10, 20, 50 μM, 24 h. How it is done: (§2) Cells from a colorectal cancer cell line (DLD-1) were incubated with Compound Ia (0, 1, 10, 20, 50 μM), or with compound PF-3758309 (500 nM) for 24 h. At the end of 24 h culture, the medium was removed from the cells, and the cells were washed once with PBS. The cells were lysed in SDS-sample buffer. The resultant cell lysates were subjected to 10% SDS-PAGE to separate the proteins with different molecular weights, which then were blotted with antibodies against PD-L1, PAK1, PAK4, α-SMA and GAPDH.
(In general: Immunoblotting shows a protein as a band on a membrane.)

The next data set addresses PAK4 kinase (Homo sapiens, UniProt O96013). Briefly: Cell-free kinase assay, PAK4. The class given is biochemical. As to conditions: read-out: IC50, inhibition of PAK4 kinase.
In the next data set the target is PAK1 (Homo sapiens, UniProt Q13153). Briefly: Cell-free kinase assay, PAK1. The class given is biochemical.
For another data set, the system named is B16F10 (skin cancer). Briefly: Cell proliferation, B16F10. Type of data set: cell-based. As to conditions: Mus musculus, B16-F10.
The next data set has as its system PAK4. Briefly: Western blot of PAK4 expression in DLD-1 cells. The class given is cell-based. The following applies: 24 h. How it is done:
as §2

The subject of data set [4] is KPCWT833 (pancreatic cancer). Briefly: Cell proliferation, KPCWT833. Type of data set: cell-based.
Text: as §1

Data set [5] has as its system EIG-1 (cholangiocarcinoma). The data set is described as follows: Cell proliferation, EIG-1. The class given is cell-based.
Text: as §1

A further data set deals with HepG2 (liver cancer). Briefly: Cell proliferation, HepG2. The class given is cell-based. The following applies: Homo sapiens.
Text: as §1

For the next data set, the system named is MC-38 (colon cancer). Briefly: Cell proliferation, MC-38. The class given is cell-based. As to conditions: Mus musculus.
Text: as §1

Data set [6] concerns alpha smooth muscle actin (α-SMA). Briefly: Western blot of α-SMA expression in DLD-1 cells. Type of data set: cell-based. The following applies: 24 h. How it is done: as §2
Another data set concerns the target T1, CHEK2 (Homo sapiens, UniProt O96017).
T1 construct: purchased Promega (Sydney, NSW, Australia)
The data set is described as follows: ADP-Glo kinase assay, CHEK2. The class given is biochemical. The protocol:
The effects of Compound Ia on CHEK2 kinase activity was assessed using an ADP-Glo kinase assay kit purchased from Promega (Sydney, NSW, Australia). The assay was undertaken in accordance with the manufacturer's instructions.
For orientation: ADP-Glo first removes unused ATP, then detects ADP through luciferase.

Another data set concerns KPC833 cells. Briefly: In vivo efficacy in combination with Gemcitabine, subcutaneous KPC833 tumours in C57Bl6.
For data set [7], the system named is immunological biomarkers in tumour tissues. The data set is described as follows: Immunological biomarkers in tumour tissues by flow cytometry, syngeneic mouse models of pancreatic cancer. Type of data set: in vivo. The following applies: combination with Gemcitabine. The protocol:
The effects of Compound Ia on immunological biomarkers was assessed using syngeneic mouse models of pancreatic cancer.
Single cell suspension was made from tumour tissues isolated from mice treated with either gemcitabine alone or gemcitabine plus PAK227. The cell suspension was incubated with antibodies against CD45, CD4, CD8, B220, PD-L1, PD-1, CD11b and Ly6c, and then subjected to a flow-cytometry machine for cell number counting and percentage calculation.
(In general: Flow cytometry measures light scatter and fluorescence of single cells or particles in a stream.)

Data set [8] is described as follows: Dissolution of the prodrug in ethanol/water. Type of data set: physicochemical. As to conditions: 67% ethanol in water solution.

Entries after “also recorded” stand apart in the source; their conditions may differ. Where a name gives a salt, the structure may show the parent alone. Read-outs that look alike come from different tables or passages of the source.

T1 sequence (O96017 whole entry): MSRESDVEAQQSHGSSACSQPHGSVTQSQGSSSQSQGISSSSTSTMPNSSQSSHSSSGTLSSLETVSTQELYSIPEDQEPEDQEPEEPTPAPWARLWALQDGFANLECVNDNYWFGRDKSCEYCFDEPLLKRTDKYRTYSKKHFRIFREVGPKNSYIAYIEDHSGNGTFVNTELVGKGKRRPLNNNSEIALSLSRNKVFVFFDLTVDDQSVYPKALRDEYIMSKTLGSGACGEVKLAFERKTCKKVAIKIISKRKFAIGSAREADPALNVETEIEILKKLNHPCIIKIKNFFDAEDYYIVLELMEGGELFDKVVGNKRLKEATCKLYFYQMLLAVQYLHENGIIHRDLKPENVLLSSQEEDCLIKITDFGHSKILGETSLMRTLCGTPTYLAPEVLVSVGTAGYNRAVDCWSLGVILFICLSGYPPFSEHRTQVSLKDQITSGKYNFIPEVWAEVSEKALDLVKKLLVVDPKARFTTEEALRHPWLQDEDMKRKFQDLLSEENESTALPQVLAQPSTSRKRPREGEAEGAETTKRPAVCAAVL
Chain of PAK1 (Q13153 whole entry): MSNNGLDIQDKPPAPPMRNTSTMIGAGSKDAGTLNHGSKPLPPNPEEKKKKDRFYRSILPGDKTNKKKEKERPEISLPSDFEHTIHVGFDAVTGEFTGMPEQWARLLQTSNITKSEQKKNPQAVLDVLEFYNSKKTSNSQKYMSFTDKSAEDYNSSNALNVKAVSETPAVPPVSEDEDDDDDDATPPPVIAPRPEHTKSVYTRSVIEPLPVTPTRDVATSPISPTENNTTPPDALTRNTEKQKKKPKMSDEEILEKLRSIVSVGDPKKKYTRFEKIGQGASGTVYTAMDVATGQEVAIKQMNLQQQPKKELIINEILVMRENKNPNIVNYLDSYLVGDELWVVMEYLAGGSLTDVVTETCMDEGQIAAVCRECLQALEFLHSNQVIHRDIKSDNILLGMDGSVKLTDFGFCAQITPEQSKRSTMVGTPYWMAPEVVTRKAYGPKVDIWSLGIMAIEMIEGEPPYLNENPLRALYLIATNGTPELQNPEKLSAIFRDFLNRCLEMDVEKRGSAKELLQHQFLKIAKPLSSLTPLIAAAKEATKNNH
Chain of PAK4 kinase (O96013 whole entry): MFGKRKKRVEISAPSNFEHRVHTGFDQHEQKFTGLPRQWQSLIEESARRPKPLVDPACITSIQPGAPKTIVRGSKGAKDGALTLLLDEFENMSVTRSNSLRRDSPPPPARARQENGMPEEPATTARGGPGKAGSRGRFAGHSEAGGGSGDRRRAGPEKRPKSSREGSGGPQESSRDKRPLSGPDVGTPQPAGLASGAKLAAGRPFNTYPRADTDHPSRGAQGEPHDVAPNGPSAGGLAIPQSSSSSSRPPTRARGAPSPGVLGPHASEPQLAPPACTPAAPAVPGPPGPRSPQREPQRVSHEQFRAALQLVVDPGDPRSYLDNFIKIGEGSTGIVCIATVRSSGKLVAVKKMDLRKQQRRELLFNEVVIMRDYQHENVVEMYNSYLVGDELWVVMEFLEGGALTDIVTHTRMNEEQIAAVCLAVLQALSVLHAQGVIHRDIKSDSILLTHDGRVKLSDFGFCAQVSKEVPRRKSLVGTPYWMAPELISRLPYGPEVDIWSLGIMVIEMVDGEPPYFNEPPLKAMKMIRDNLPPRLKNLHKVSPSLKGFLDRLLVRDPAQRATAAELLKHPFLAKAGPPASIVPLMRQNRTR

As to `Cc1nc(Nc2n[nH]c3c2CN(C(=O)N[C@H](CN(C)C)c2ccccc2)C3(C)C)c2sccc2n1` [PF3758309, reference compound], the concentration for half-maximal inhibition (IC50) in data set [1] turned out to be 87 nM; in data set [2] (Mus musculus), 805 nM; in data set [3] (Homo sapiens, PANC-1, PANC1) it was 500 nM.
Turning to `CNc1ncc(-c2ccc(Cc3c(Cl)cc(OC)cc3Cl)o2)cn1` [Compound Ia, 5-[5-[(2,6-dichloro-4-methoxyphenyl)methyl]furan-2-yl]-N-methylpyrimidin-2-amine], the IC50 is 6550 ± 3550 nM with U-87 (brain tumour); 200 to 500 nM on PAK4 kinase; 13300 nM with B16F10 (skin cancer); 8290 nM in data set [1]; 1000 to 2000 nM in [2]; 1720 nM in data set [2] (Mus musculus). Besides, the IC50 in [4] is 1230 ± 390 nM; in data set [5] it was 4630 nM; in data set [3] (Homo sapiens, PANC-1, PANC1), 1110 nM; in data set [3] (PANC1), 1000 to 2000 nM; in the data set with HepG2 (liver cancer) it was 3760 ± 660 nM; with MC-38 (colon cancer), 460 ± 390 nM. Moreover, at CHEK2, half-maximal inhibition (IC50) was put at 737 nM. Moreover, the “expression of PD-L1” value with PD-L1 is given as “dose-dependently inhibited”; with PD-L1 (listed as Compound Ta), “reduced the expression of PD-L1 to a comparable level”. The “effect on the kinase activity of PAK1” value on PAK1 is reported as “did not show significant effect”. For the same molecule, in the data set with PAK4, the “expression of PAK4” value is given as “reduced expression”. Besides, the “expression of alpha smooth muscle actin (α-SMA)” value in [6] is listed as “reduced expression”. In the data set with KPC833 cells (combination with Gemcitabine), the “toxicity (body weight)” value is reported as “no body weight loss was observed”. For the same molecule, in the data set on KPC833 cells (combination with Gemcitabine, 21 days and 31 days, 40 mg/Kg subcutaneous every other day), the “tumour volume compared to untreated control tumours” value is “regression of pancreatic tumour growth”. For the same molecule, the “efficacy against advanced tumours compared to Gemcitabine alone” value in the data set on KPC833 cells (combination with Gemcitabine, tumour size=100 mm^3) is “improved efficacy”. Further, the “tumour volume over 21 days compared to gemcitabine alone” value with KPC833 cells (intra-tumour injection 10 mg/kg on day 1, followed by gemcitabine 50 mg/kg) is on record as “decreased tumour volume”. Further, in [7], the “expression of immunological biomarkers in tumour tissues compared to Gemcitabine alone” value is on record as “increases the expression of immunological biomarkers; also recorded: increases various immunological biomarkers”.
Regarding `COc1cc(Cl)c(Cc2ccc(-c3cnc(NC(=O)CN)nc3)o2)c(Cl)c1` [Compound Ic, 2-amino-N-(5-{5-[(2,6-dichloro-4-methoxyphenyl)methyl]furan-2-yl}pyrimidin-2-yl)acetamide hydrochloride], the solubility in ethanol/water entry in data set [8] was “able to be dissolved”.

By IC50 is commonly meant the concentration at which inhibition is half-maximal.

The record behind these values is patent publication US12590080B2, “Compounds” (PACKINAX PTY LTD, priority 2020, dated 2026).
